Measurements reported in PMC4726189, “Blocking protein phosphatase 2A signaling prevents endothelial-to-mesenchymal transition and renal fibrosis: a peptide-based drug therapy” (Scientific Reports, 2016).

Key:
occludin = test: Serine/threonine phosphorylation of occludin in immunoprecipitates from TGF-β1-treated HUVECs; type: cell-based, human; conditions: n ≥ 3
Protocol: (§1) Human umbilical vein endothelial cells (HUVECs, ATCC) were cultured in RPMI-1640 (Gibco) supplemented with 10% fetal bovine serum (FBS, HyClone). When 30% confluent, cells were cultured in serum-free medium before recombinant human TGF-β1 (10 ng/ml; Peprotech) treatment. In some experiments, cells were pretreated with PP2A inhibitor OA (10 nM; Sigma) for 1 h before the addition of TGF-β1. For all cell stimulations, n ≥ 3 independent experiments were performed.
Cell lysates were centrifuged at 12,000g for 30 min at 4 °C. Approximately 1 mg of each lysate was incubated overnight at 4 °C with 2 μg of anti-occludin, anti-PP2Ac or IgG antibody (a negative control), followed by incubation with Protein A/G-Agarose for 1 hr to capture immunoprecipitates. Bead complexes were washed four times in lysis buffer and then resuspended in 2 × SDS buffer and heated for 10 min at 90 °C. Lysates were electrophoresed, transferred to PVDF filters, and subsequently immunoblotted with antibodies.

PP2A [1] = conditions: inhibition of PP2A by okadaic acid; cited from earlier work
From the text: The vast majority of biological processes, including renal fibrosis, are regulated by the balance between the activities of kinases and phosphatases. The significance of kinases has been intensively discussed in kidney disease for decades, however, the roles of phosphatases remain poorly understood. Protein phosphatase 2A (PP2A) is a ubiquitously expressed protein serine/threonine phosphatase that accounts for a large fraction of phosphatase activity in eukaryotic cells. As a heterotrimer, PP2A is composed of three subunits: a catalytic C subunit (PP2Ac), a structural A subunit (PP2Aa) ...

HUVECs [2] = test: TGF-β1-induced EndMT in HUVECs, western blot of VE-cadherin and α-SMA; type: cell-based, human; conditions: n ≥ 3
Protocol: as §1
Renal tissues or cells were harvested and centrifuged at 12,000 g to remove cell debris. Protein concentration was measured using a BCA assay kit (Pierce). Eighty micrograms of protein was subjected to SDS-PAGE and transferred onto polyvinylidene difluoride membranes. After transfer, the membranes were blocked and blotted routinely with antibodies against VE-cadherin (BD Biosciences), α-SMA (Abcam), collagen1 (Abcam), PP2Ac (Cell Signaling Technology), occludin (Invitrogen), P-threonine/P-serine (Santa Cruz), nitrotyrosine (Cayman), acetylated-lysine (Cell Signaling Technology), phosphotyrosine (PY-20,Biolgend), PP2A,C subunit, demethylated (Millipore), vimentin (Boster) and CD31 (Proteintech). The immunolabeled proteins were detected by enhanced chemiluminescence (Pierce).The density of the bands was analyzed by Quantity One software (Bio-Rad).

Caco-2 Cells = conditions: cited from earlier work
From the text: (§2) Therefore, blocking PP2Ac Tyr127 nitration is considered a potential therapeutic approach. […] Peptide-based drugs have garnered much attention because of their high potencies of action and relatively few off-target side-effects[52][53].

PP2A [3] = conditions: cited from earlier work
From the text: as §2

HUVECs [4] = test: Cellular uptake of FITC-labeled peptide in HUVECs; type: cell-based, human; conditions: fluorescence, n=3
Protocol: To further confirm the hypothesis, PP2Ac mimic peptides (Y127WT,Y130WT,Y265WT, Y267WT,Y284WT) were designed to assess the significance of Tyr127 and other Tyr sites on TGF-β1-driven EndMT. To enhance the penetration of synthetic peptides, a cell-permeable peptide transactivator of transcription (TAT) was used[20][21]. The conjugated peptide TAT-Y127WT was labeled with fluorescein isothiocyanate (FITC) and analyzed for cellular uptake. […] Thus, at the dose of 10 μM, we investigated the anti-EndMT effects of TAT-Y127WT compared with the other four peptides.
(§3) Figure S2. The penetration and cytotoxicity of TAT-Y127WT to HUVECs.
(§4) HUVECs were incubated with various concentrations (0,1,5,10,20,or 50μM) of TAT-Y127WT. Cytotoxicity was measured with the CCK-8 assay. (c)
(§5) Immunofluorescence distribution of TAT-Y127WT and cell morphology. Nuclei were counterstained with DAPI (blue). n=3. Scale bars, 20μm.
(§6) Supplementary Methods: Mass Spectrometry Experiments
Protein Digestion-The protein bands were digested according to an in-gel digestion procedure. The gels were dried in a vacuum centrifuge. Briefly, the in-gel proteins were reduced with dithiothreitol (10 mM DTT/100 mM NH4HCO3 ) for 30 min at 56°C, then alkylated with iodoacetamide (200 mM IAA/100 mM NH4HCO3) in the dark at room temperature for 30 minutes. Gel pieces were briefly rinsed with 100 mM NH4HCO3 and ACN. […]

[5] = Whole-body and ex vivo organ fluorescence imaging of FITC-labeled peptide in mice; parameters: species or system C57/B mice
Protocol: FITC-loaded peptides were injected through the tail vein or intraperitoneally administered into C57/B mice at a dose of 5 nmol/g of body weight. Whole body fluorescence imaging was performed using an in vivo imaging system (IVIS Spectrum, Caliper, USA) at 0, 0.5, 4 or 24 h post-injection. Subsequently, the mice were sacrificed, and their organs such as the liver, spleen, kidneys, heart, and lung were excised and subjected to ex vivo fluorescence imaging. At the same time, 1 mL of blood was drawn from the retro-orbital sinus after injection at different time points.

HUVECs [6] = test: Cytotoxicity to HUVECs, CCK-8 assay; type: cell-based, human; conditions: approximately 5–10 μM (0, 1, 5, 10, 20 or 50 μM tested), n=3
Protocol: as §3, §4, §5, §6
Protein Digestion-The protein bands were digested according to an in-gel digestion procedure. The gels were dried in a vacuum centrifuge. Briefly, the in-gel proteins were reduced with dithiothreitol (10 mM DTT/100 mM NH4HCO3 ) for 30 min at 56°C, then alkylated with iodoacetamide (200 mM IAA/100 mM NH4HCO3) in the dark at room temperature for 30 minutes. Gel pieces were briefly rinsed with 100 mM NH4HCO3 and ACN. Gel pieces were digested overnight in 12.5 ng/μl trypsin in 25 mM NH4HCO3. The peptides were extracted three times with 60% ACN/0.1% TFA.
The extracts were pooled and dried completely by a vacuum centrifuge.
Identification of the Modification Sites-Experiments were performed on a Q Exactive mass spectrometer that was coupled to Easy nLC (Proxeon Biosystems, now Thermo Fisher Scientific). Approximately 3 μl of the sample was injected for nanoLC-MS/MS analysis. The peptide mixture (1 μg) was loaded onto the C18-reversed phase column
(1 picture or pasted object on this page, not shown here)

[7] = OA 10 nM for 1 h before TGF-β1 10 ng/ml
[8] = FITC-labeled peptide, tail vein injection, ex vivo organ imaging at different time points

Protocol for UUO mice: Mice aged 6–8 weeks were grouped as sham-operated, UUO, UUO +TAT-Y127WT and UUO + TAT-Y127Scr and tail vein injected 1d before surgery. To perform UUO surgery, mice were anesthetized with ketamine hydrochloride (80 mg/kg body weight, intraperitoneally) before surgery and the left kidney was exposed through a flank incision and the left ureter tied off at the level of the lower pole of the kidney with two 4.0 silk ties. All mice were euthanized at the end of the experiments after obstruction, and some kidney tissues were fixed with 4% paraformaldehyde. The remainder was frozen in liquid nitrogen for later use.
Four-micrometer-thick paraffin sections were incubated with primary antibodies overnight at 4 °C and were then incubated with biotinylated goat anti-rabbit IgG or goat anti-mouse IgG for 45 min followed by diaminobenzidine (DAKO) staining. All sections were examined under a light microscope (Olympus BX-50) and digitized with a high-resolution camera. For immunofluorescence studies, after incubated with primary antibody, sections (including serial sections) were incubated with FITC- or CY3-conjugated goat antibody (Jackson ImmunoResearch) for 45 min at 37 °C and then counterstained with DAPI (Vector Laboratories) and analyzed by confocal laser scanning microscopy. 3D reconstructed technology was based on confocal laser-scanning microscopy and analyzed by the software (LAS-AF-Lite 2.6.3). PTC density was analyzed as described with some modifications[56].

## C=C1[C@@H](O)[C@@H]2O[C@]3(CC[C@H](/C=C/[C@@H](C)[C@@H]4CC(C)=C[C@@]5(O[C@H](C[C@@](C)(O)C(=O)O)CC[C@H]5O)O4)O3)CC[C@H]2O[C@@H]1[C@@H](O)C[C@H](C)[C@H]1O[C@@]2(CCCCO2)CC[C@H]1C [OA, okadaic acid, reference compound]
occludin; pretreatment with OA 10 nM for 1 h
  TGF-β1-induced decrease of phosphorylated serine and threonine residues in occludin immunoprecipitates: significantly dampened
PP2A [1]
  effect of PP2A on thrombin- or nocodazole-induced changes in EC cytoskeleton: abolished
HUVECs [2]; [7]
  VE-cadherin expression: maintained
  α-SMA expression induced by TGF-β1: markedly attenuated

## TPDYFL
Caco-2 Cells
  acetaldehyde-induced tight junction disruption and barrier dysfunction: prevented
PP2A [3]
  PP2A translocation in cardiac myocytes: attenuate

## ITQVYGFYD [TAT-Y127WT, mimic peptide derived from PP2Ac conjugating a cell penetrating peptide (CPP: TAT)]
HUVECs [4]; 10 μM
  cell transduction: effectively transduces cells
HUVECs [4]; FITC-labeled peptide, approximately 5–10 μM
  cell penetration: efficient cell penetration
UUO mice; 5 nmol/g per day, CD31+ PTC numbers per visual field, n = 8
  density of peritubular capillaries: preserved density
UUO mice; 5 nmol/g per day, confocal microscopy, n = 8
  number of CD31+/α-SMA+ areas in the interstitium (EndMT level): dramatically decreased
UUO mice; 5 nmol/g per day, immunohistochemical staining, n = 8
  excessive extracellular matrix (ECM) production, α-SMA and vimentin deposition: attenuated
UUO mice; administration of the peptide
  PP2Ac nitration: significantly reduces
occludin; TGF-β1, 72 h, compared with TAT-Y127Scr treatment
  serine and threonine phosphorylation of occludin: significantly increased
[5]; FITC-labeled peptide 5 nmol/g intravenously, whole-body imaging at 0, 0.5, 4, 24 h and blood samples (n = 6)
  time to disappearance of the fluorescence signal after injection: ≤ 24 h
[5]; [8]
  fluorescence in heart and lung: small signal
  fluorescence in kidney and liver: strongly detected
  fluorescence in spleen: no signal
HUVECs [2]; peptide 10 μM, TGF-β1, 72 h, compared with the other four peptides
  potency to inhibit TGF-β1-induced VE-cadherin decrease and α-SMA increase: higher potency
HUVECs [2]; pretreatment with peptide, TGF-β1, 72 h
  increase of α-SMA: inhibited
HUVECs [6]
  cytotoxicity to HUVECs: low cytotoxicity
